Experimental data as given in ChEMBL document CHEMBL1201862, “PubChem BioAssay data set” (2004).
Activity calls are given as the source filed them.

Experiments:
[1] = biological target: T1, Sentrin-specific protease 7 (Homo sapiens, UniProt Q9BQF6); assay type: functional;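 note: Luminescence-based dose-response confirmation of ultra-high-throughput screening hits, measuring inhibition of SENP7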
T1 sequence (Q9BQF6 whole entry): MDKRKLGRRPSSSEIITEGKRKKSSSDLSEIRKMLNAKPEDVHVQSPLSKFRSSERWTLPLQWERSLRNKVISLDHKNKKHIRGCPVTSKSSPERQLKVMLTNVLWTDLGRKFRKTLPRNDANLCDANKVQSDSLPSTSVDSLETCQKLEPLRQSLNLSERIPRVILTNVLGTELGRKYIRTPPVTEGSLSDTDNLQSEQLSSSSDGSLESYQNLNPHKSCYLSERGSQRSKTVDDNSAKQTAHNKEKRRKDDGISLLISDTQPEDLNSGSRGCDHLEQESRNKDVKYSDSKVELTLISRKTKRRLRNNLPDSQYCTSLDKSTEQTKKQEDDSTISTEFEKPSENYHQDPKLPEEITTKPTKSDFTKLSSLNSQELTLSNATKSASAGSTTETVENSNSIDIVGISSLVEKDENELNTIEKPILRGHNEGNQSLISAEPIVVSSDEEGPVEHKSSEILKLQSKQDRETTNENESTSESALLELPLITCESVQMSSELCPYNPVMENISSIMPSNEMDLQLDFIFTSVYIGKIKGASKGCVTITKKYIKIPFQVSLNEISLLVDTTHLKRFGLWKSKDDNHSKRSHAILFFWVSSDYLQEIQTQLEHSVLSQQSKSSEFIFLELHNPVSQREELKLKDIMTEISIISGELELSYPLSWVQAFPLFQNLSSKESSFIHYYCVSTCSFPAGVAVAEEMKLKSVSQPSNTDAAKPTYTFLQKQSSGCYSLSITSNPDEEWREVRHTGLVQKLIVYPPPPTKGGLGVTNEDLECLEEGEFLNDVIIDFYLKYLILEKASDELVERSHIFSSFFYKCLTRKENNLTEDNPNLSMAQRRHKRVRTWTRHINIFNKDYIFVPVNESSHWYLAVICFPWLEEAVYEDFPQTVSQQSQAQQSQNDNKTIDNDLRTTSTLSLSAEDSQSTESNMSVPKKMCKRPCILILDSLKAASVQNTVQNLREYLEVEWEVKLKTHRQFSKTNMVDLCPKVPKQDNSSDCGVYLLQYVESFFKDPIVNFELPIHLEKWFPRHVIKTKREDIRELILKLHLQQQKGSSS

[2] = biological target: T2, Sentrin-specific protease 8 (Homo sapiens, UniProt Q96LD8); assay type: functional;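 note: luminescence read-out of SENP8 inhibition, dose-response confirmation following an ultra-high-throughput screen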
T2 sequence (Q96LD8 whole entry): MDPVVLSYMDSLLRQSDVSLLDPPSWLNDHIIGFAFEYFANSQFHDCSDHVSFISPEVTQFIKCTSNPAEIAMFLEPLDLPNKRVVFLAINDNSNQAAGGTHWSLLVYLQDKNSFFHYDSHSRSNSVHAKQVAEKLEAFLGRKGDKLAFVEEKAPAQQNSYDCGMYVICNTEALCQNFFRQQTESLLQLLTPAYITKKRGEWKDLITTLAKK

Caspase-3 = biological target: T3, Caspase-3 (Homo sapiens, UniProt P42574); assay type: functional;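 note: Dose-response selectivity test against caspase-3 for candidate inhibitors of sentrin-specific proteases (SENPs)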
T3 sequence (P42574 whole entry): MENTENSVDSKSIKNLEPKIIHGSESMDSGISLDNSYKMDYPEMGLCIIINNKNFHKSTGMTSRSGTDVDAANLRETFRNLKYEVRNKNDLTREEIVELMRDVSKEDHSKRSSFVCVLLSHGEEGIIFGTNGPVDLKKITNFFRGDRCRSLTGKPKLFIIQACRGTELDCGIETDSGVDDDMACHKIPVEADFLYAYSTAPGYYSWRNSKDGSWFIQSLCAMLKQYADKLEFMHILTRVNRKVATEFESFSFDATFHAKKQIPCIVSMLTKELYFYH

[3] = biological target: T4, Sentrin-specific protease 6 (Homo sapiens, UniProt Q9GZR1); assay type: functional;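 note: Luminescence-based dose-response confirmatory assay of SENP6 inhibition, following up an ultra-high-throughput screen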
T4 sequence (Q9GZR1 whole entry): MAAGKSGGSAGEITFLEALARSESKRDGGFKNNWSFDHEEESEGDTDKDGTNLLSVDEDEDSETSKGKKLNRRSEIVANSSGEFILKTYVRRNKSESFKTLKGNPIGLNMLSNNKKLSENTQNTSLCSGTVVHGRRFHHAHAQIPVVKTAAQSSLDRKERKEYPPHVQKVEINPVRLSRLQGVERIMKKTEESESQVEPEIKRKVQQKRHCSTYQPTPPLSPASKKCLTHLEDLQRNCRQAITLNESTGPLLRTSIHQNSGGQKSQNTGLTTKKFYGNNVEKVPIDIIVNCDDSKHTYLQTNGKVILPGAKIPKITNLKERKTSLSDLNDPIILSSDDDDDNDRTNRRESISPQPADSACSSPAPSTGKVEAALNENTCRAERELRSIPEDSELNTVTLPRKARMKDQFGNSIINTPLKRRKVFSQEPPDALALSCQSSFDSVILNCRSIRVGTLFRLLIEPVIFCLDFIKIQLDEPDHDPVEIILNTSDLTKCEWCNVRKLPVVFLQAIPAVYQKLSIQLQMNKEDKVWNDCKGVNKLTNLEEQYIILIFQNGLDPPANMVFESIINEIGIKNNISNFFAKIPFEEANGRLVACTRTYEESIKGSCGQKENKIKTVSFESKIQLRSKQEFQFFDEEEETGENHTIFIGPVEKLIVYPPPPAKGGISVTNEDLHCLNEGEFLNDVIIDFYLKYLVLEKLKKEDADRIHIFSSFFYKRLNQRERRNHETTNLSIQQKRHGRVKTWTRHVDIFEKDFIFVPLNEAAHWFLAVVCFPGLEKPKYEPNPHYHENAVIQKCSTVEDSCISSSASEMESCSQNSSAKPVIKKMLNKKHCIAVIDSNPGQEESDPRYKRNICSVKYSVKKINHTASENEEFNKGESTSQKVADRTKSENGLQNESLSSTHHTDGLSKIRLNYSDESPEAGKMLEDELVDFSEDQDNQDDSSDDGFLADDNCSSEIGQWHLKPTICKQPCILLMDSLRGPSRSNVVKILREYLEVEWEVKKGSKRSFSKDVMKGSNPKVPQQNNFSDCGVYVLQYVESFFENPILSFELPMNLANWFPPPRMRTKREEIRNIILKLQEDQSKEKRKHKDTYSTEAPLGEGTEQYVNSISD

[4] = biological target: T5, Fructose-bisphosphate aldolase (Mycobacterium tuberculosis, UniProt P9WQA3); assay: Fluorescence-based biochemical high throughput dose response assay for inhibitors of the fructose-bisphosphate aldolase (FBA) of M. tuberculosis.; assay type: functional
T5 sequence (P9WQA3 whole entry): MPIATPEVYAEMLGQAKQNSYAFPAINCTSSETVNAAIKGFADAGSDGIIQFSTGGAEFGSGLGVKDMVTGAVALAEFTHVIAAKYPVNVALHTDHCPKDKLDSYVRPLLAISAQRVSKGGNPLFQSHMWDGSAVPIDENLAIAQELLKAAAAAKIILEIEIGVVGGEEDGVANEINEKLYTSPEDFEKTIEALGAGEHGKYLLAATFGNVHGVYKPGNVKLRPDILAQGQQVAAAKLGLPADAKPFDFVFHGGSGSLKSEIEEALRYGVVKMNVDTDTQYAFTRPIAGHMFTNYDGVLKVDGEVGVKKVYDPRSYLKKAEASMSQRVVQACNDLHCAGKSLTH

[5] = HGIII-sPLA2 enzyme inhibition potency – biochemical, QFRET, IC50, dose response (AID 743457);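 note: green fluorescence rise as the enzyme cleaves BODIPY PC-A2 in liposomes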
[6] = biological target: SWI/SNF-related matrix-associated actin-dependent regulator of chromatin subfamily A member 2 (Homo sapiens, UniProt P51531); assay: Luminescence-based cell-based high throughput dose response assay to identify activators of the function of SWI/SNF related, matrix associated, actin dependent regulator of chromatin, subfamily a, member 2 (SMARCA2, BRM).; assay type: functional
Sequence of SWI/SNF-related matrix-associated actin-dependent regulator of chromatin subfamily A member 2 (P51531 whole entry): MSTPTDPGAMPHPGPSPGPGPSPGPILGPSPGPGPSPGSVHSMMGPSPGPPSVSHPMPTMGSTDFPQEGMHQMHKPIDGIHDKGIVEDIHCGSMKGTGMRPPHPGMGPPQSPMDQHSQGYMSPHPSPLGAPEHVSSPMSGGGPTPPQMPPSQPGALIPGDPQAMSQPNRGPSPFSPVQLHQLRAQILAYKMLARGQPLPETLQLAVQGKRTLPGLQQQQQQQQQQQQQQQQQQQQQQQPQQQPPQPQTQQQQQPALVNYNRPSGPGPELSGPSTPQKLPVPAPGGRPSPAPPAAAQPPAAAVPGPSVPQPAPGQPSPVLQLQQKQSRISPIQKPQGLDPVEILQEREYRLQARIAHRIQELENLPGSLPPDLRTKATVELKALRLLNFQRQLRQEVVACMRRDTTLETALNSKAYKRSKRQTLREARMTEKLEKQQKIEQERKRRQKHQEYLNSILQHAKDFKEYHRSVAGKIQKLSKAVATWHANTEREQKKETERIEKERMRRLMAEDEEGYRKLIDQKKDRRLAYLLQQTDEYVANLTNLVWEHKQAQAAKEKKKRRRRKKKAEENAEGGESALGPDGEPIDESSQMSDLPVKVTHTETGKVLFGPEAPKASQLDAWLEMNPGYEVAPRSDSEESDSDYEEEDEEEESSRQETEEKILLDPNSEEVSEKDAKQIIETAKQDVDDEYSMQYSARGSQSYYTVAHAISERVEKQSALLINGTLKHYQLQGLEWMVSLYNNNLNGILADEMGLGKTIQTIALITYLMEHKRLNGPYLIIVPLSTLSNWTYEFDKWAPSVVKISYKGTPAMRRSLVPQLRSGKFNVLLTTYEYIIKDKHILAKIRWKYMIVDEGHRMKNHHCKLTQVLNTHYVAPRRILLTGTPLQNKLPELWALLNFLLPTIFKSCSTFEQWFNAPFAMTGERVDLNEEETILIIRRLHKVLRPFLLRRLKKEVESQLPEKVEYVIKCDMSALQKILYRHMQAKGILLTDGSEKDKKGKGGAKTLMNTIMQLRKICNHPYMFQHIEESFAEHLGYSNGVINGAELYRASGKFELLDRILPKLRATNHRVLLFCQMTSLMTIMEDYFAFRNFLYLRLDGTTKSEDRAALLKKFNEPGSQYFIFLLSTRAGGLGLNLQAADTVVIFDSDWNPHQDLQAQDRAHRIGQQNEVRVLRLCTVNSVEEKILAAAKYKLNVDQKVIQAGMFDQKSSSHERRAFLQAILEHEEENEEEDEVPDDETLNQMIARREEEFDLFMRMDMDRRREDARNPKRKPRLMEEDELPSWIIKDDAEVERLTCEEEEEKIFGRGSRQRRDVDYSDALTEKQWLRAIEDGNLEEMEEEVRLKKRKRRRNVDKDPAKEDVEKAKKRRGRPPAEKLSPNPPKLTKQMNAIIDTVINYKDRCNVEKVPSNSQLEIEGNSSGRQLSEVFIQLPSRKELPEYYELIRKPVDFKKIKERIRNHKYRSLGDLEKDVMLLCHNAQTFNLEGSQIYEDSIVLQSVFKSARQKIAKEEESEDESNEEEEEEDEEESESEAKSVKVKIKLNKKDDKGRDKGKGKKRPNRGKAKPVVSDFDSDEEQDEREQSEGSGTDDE

[7] = Counterscreen for activators of the function of SWI/SNF related, matrix associated, actin dependent regulator of chromatin, subfamily a, member 2 (SMARCA2, BRM): Luminescence-based cell-based high throughput dose response assay to identify non-selective compounds using the VP16 reporter assay.; assay type: functional
[8] = Trypanosoma cruzi growth suppression in host cells – NIH3T3 host cells, beta-gal luminescence, confirmation (AID 2044); assay type: functional, cell-based;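 note: intracellular parasites grown in NIH/3T3 mouse fibroblasts as host cells; luminescent beta-galactosidase reporter signal from transgenic T. cruzi replicating inside host cells; inhibitors lower the luminescence signal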
[9] = NIH3T3 cell viability loss – ATP luminescence, mouse fibroblasts, counter-screen, dose response (AID 2010); assay type: functional, cell-based;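 note: cells exposed to compound for about 90 hours before reading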
[10] = A549 cell cytotoxicity, dose response, cytotoxicity control, plate reader, cherry-pick, antagonist series (AID 743412); assay type: functional, cell-based
[11] = blockade of melanocortin 4 receptor signaling – cell-based, plate reader, cherry pick, counter-screen for LGR2 antagonist project, dose response (AID 743444); assay type: functional;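 note: transfected HEK 293 cells stimulated with alpha-MSH peptide; potency of inhibitors of the alpha-MSH evoked signal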
[12] = blockers of bursicon-stimulated LGR2 cAMP reporter – cell-based, HEK293, CRE-luciferase reporter, cherry pick, set 2, dose response (AID 743343); assay type: functional;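 note: transfected cells were stimulated with diluted bursicon conditioned medium after compound addition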
HEK293 = assay: EBV LMP1 TES2 canonical NF-kB signalling blockers – cell-based, HEK293, luciferase, cherry-pick, dose response (AID 588343); assay type: functional; conditions: Homo sapiens
[13] = viability loss in HEK293 cells – cell-based, plate reader, cherry-picked samples, cytotoxicity control, dose response (AID 743446); assay type: functional
[14] = viability of uninfected HEp-2 cells – cell-based, HTS, cytotoxicity control for RSV inhibitor project, dose response (AID 2410); assay type: functional; conditions: human respiratory syncytial virus
[15] = microbe, parasite or virus in culture; assay type: functional; conditions: Mycobacterium tuberculosis
BJ [16] = assay: cells; assay type: functional, cell-based; conditions: Homo sapiens
Caspase-6 = biological target: T6, Caspase-6 (Homo sapiens, UniProt P55212); assay: inhibition of CASP6 peptide cleavage – biochemical, VEID-R110 fluorescence, cherry-pick, dose response (AID 720632)
T6 sequence (P55212 whole entry): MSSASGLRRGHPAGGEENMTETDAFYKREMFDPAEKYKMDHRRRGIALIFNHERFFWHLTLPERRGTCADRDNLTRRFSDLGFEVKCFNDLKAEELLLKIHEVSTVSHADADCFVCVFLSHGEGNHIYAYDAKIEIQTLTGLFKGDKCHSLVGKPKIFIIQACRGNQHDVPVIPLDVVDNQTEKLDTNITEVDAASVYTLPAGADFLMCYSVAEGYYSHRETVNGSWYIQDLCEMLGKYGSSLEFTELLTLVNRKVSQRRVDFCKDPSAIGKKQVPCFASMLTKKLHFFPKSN

[17] = Luminescence Cell-Based Dose Confirmation HTS to Identify Inhibitors of Platelet Dense Granule Release. [Related pubchem assays: 1663 (Primary HTS), 1678 (Summary of Project)]; assay type: functional
[18] = biological target: Luciferin 4-monooxygenase (Photinus pyralis, UniProt P08659); assay: inhibition of purified Photinus pyralis luciferase – biochemical, luminescence, dose response (AID 1891)
Sequence of Luciferin 4-monooxygenase (P08659 whole entry): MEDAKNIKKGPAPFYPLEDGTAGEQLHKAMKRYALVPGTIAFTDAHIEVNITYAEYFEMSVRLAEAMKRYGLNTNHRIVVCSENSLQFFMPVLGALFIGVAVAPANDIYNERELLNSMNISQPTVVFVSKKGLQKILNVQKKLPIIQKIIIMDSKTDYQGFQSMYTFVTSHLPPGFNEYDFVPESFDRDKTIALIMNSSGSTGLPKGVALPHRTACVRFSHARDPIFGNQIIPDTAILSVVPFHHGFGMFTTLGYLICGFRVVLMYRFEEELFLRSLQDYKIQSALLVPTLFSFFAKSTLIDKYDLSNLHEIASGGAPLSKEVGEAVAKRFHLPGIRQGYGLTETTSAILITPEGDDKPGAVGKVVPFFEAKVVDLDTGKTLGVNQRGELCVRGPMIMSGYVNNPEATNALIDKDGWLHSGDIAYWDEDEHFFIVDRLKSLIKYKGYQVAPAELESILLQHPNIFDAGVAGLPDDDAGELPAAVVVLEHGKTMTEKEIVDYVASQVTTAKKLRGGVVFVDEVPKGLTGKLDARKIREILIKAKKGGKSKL

BJ [19] = assay: BJ-TERT fibroblast viability loss – cell-based, RAS-independent, luminescence, dose response (AID 1933); assay type: functional; conditions: Homo sapiens
BJ [20] = assay: BJ-TERT-LT-ST fibroblast viability loss – cell-based, RAS-independent, luminescence, dose response (AID 1935); assay type: functional; conditions: Homo sapiens;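 note: BJ fibroblasts immortalized with TERT plus LT and ST oncogenes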
[21] = DRD fibroblast viability loss – cell-based, non-viral oncogenic, luminescence, dose response (AID 1934); assay type: functional; conditions: Homo sapiens
[22] = general mammalian cell viability loss – inhibitor set, cherry-pick, set 2, cytotoxicity control for miR-122 modulator project, dose response (AID 720697); assay type: functional, cell-based

O=C(Nc1ccccc1)N1CC=C(c2ccc(F)cc2)CC1
IC50 [1]: 14.9 µM (active)
IC50 [2]: 86.8 µM (active)
IC50 (Caspase-3): 34.3 µM (active)
IC50 [3]: 54.5 µM (active)

COc1ccc(NC(=O)c2ccc(-c3ccccc3Cl)o2)cc1
IC50 [1]: 4.54 µM (active)
IC50 [2]: > 100 µM (inactive)
IC50 (Caspase-3): 16.2 µM (active)
IC50 [3]: 4.21 µM (active)

O=C1C(=O)N(c2ccccc2)C(c2ccccc2)C1c1ccccc1 (stereo not given)
IC50 [4]: > 9.99 µM (inactive)

O=C(NNc1nc(-c2ccccc2)cs1)c1ccco1
IC50 [5]: > 122 µM (inactive)

COc1ccc2nc3c(O)n(Cc4ccncc4)cnc-3c2c1
IC50 [4]: 0.97 µM (active)

COc1cc(OC)cc(-c2nc3ccccc3s2)c1
EC50 [6]: > 91.1 µM (inactive)
EC50 [7]: > 91.1 µM (inactive)

O=C(Oc1c(CN2CCOCC2)cc(Cl)c2cccnc12)c1ccccc1F
EC50 [6]: > 91.2 µM (inactive)
EC50 [7]: > 91.2 µM (inactive)
EC50 [8]: 1.65 µM (active)
EC50 [9]: 8.05 µM (active)

Cc1ccc(C(=O)Nc2ccc3c(c2)OCCO3)cc1
AC50 [10]: > 52 µM (inactive)
AC50 [11]: 4.05 µM (active)
AC50 [12]: 2.67 µM (active)
AC50 (HEK293): 2.05 µM (active)

COC(=O)/C=C/C(=O)Nc1cccc(C(F)(F)F)c1
AC50 (HEK293): 11.1 µM (active)

COCC(=O)N1CCCCN2[C@H](CO)[C@H](c3ccc(-c4cccc(C)c4)cc3)[C@@H]2C1
AC50 [10]: > 52 µM (inactive)
AC50 [13]: > 52 µM (inactive)
AC50 [11]: 23.6 µM (active)
AC50 [12]: 18 µM (active)

CCS(=O)(=O)N1N=C(c2ccc(NS(C)(=O)=O)cc2)CC1c1ccccc1 (stereo not given)
IC50 [4]: > 0.37 µM (active)

O=C1NC(=O)/C(=C/c2ccc(-c3cccc([N+](=O)[O-])c3)o2)S1
IC50 [1]: 50.7 µM (active)
CC50 [14]: 1.93 µM (active)
CC50 [15]: > 40 µM (active)
IC50 [2]: 55.7 µM (active)
IC50 (Caspase-3): 13.6 µM (active)
IC50 [3]: 17 µM (active)

Cc1nc2cc(-c3cccs3)nn2c(O)c1C
IC50 [4]: > 3.33 µM (active)

CC(C)(C)c1csc(NNC(=O)c2ccc(Cl)cc2)n1
IC50 [5]: > 122 µM (inactive)

Cn1c(N=Nc2ccccc2)nc2ccccc21
EC50 (BJ [16]): 4.78 µM (inconclusive)
AC50 (Caspase-6): 38.1 µM (active)
EC50 [17]: 1.78 µM (active)
EC50 [18]: 1.5 µM (active)
EC50 (BJ [19]): 6.48 µM (active)
EC50 (BJ [20]): 9.38 µM (active)
EC50 [21]: 6.84 µM (inconclusive)

CC/N=c1\sc(C(=O)OC)cc(=O)n1CC
EC50 [6]: > 91.2 µM (inactive)
EC50 [7]: > 91.2 µM (inactive)

CSc1nc2ccc(NC(=O)c3ccccn3)cc2s1
AC50 [13]: > 52 µM (inactive)
AC50 [11]: 5.41 µM (active)
AC50 [12]: 4.16 µM (active)

Sc1nnc(CCc2ccccc2)n1-c1ccc(Cl)cc1
IC50 [5]: > 122 µM (inactive)

C=CCn1c(C)c(C(C)=O)c(N2CCN(C(c3ccccc3)c3ccccc3)CC2)nc1=S
AC50 (HEK293): 63.8 µM (active)

CC(C)NC(=O)N1[C@H](CO)[C@@H](c2ccccc2)[C@@H]1CN(C)C(=O)c1cccnc1
AC50 [22]: 0.538 µM (active)
